# Reference: patent US20100137353A1, “TRICYCLIC COMPOUNDS AS ANTIBACTERIALS” (GLAXO GROUP LIMITED, priority 2007, published 2010)
# Counter-ions that a name gives are not always drawn.
# What was measured:
# [1] = Whole-cell antimicrobial activity assay, broth microdilution (CLSI M7-A7); format: cell-based; conditions: against a strain of at least one of the organisms listed; tested in at least one exemplified salt form; dilutions 0.016 to 16 mcg/mL; read-out: MIC (minimum inhibitory concentration)
# Procedure: Whole-cell antimicrobial activity was determined by broth microdilution using the Clinical and Laboratory Standards Institute (CLSI) recommended procedure, Document M7-A7, “Methods for Dilution Susceptibility Tests for Bacteria that Grow Aerobically”. The compounds were tested in serial two-fold dilutions ranging from 0.016 to 16 mcg/mL.
# The minimum inhibitory concentration (MIC) was determined as the lowest concentration of compound that inhibited visible growth. A mirror reader was used to assist in determining the MIC endpoint.
# Compounds were evaluated against Gram-positive organisms, including Staphylococcus aureus, Streptococcus pneumoniae, Streptococcus pyogenes, Enterococcus faecalis and Enterococcus faecium.
# In addition, compounds were evaluated against Gram-negative strains including Haemophilus influenzae, Moraxella catarrhalis, Escherichia coli, Pseudomonas aeruginosa, Proteus mirabilis, Enterobacter cloacae, Enterobacter aerogenes, Klebsiella pneumoniae and Stenotrophomonas maltophilia.
# [2] = system: Mycobacterium tuberculosis H37Rv; assay: Mycobacterium tuberculosis H37Rv Inhibition Assay; format: cell-based; conditions: ATCC 25618 / H37Rv, H37Rv strain (ATCC25618), Middlebrook 7H9+ADC, resazurin fluorescence readout
# Procedure: Mycobacterium tuberculosis H37Rv Inhibition Assay
# The measurement of the minimum inhibitory concentration (MIC) for each tested compound was performed in 96 wells flat-bottom, polystyrene microtiter plates. Ten two-fold drug dilutions in neat DMSO starting at 400 μM were performed. Five μl of these drug solutions were added to 95 μl of Middlebrook 7H9 medium. (Lines A-H, rows 1-10 of the plate layout). Isoniazid was used as a positive control, 8 two-fold dilution of Isoniazid starting at 160 μgml^−1 was prepared and 5 μl of this control curve was added to 95 μl of Middlebrook 7H9 (Difco catalogue Ref. 271310)+ADC medium (Becton Dickinson Catalogue Ref 211887). (Row 11, lines A-H). Five μl of neat DMSO were added to row 12 (growth and Blank controls).
# The inoculum was standardised to approximately 1×10^7 cfu/ml and diluted 1 in 100 in Middlebrook 7H9+ADC medium and 0.025% Tween 80 (Sigma P4780), to produce the final inoculum of H37Rv strain (ATCC25618). One hundred μl of this inoculum was added to the entire plate but G-12 and H-12 wells (Blank controls). All plates were placed in a sealed box to prevent drying out of the peripheral wells and they were incubated at 37° C. without shaking for six days. […] Fluorescence was measured (Spectramax M5 Molecular Devices, Excitation 530 nm, Emission 590 nm) after 48 hours to determine the MIC value. […]
smiles,measurement,setting,value
"O=c1ccc2ncc(F)c3c2n1C[C@@]3(O)CN1CCC(NC/C=C/c2ccccn2)CC1 [Example 1, (4S)-3-Fluoro-4-hydroxy-4-[(4-{[(2E)-3-(2-pyridinyl)-2-propen-1-yl]amino}-1-piperidinyl)methyl]-4,5-dihydro-7H-pyrrolo[3,2,1-de]-1,5-naphthyridin-7-one dihydrochloride]",MIC,[1],≤ 2 µg/mL
"O=c1ccc2ncc(F)c3c2n1C[C@@]3(O)CN1CCC(NC/C=C/c2ccco2)CC1 [Example 2, (4S)-3-Fluoro-4-[(4-{[(2E)-3-(2-furanyl)-2-propen-1-yl]amino}-1-piperidinyl)methyl]-4-hydroxy-4,5-dihydro-7H-pyrrolo[3,2,1-de]-1,5-naphthyridin-7-one dihydrochloride]",MIC,[2],≤ 5.1 µg/mL
same,MIC,[1],≤ 2 µg/mL
